Converted amounts (≈) assume the structure as drawn. Like-named read-outs stand apart in the source and are kept apart here.
Assays:
MRSA [1] = conditions: against MRSA; Kube et al; cited from earlier work
E. fecalis = experiment: Broth assay, antibacterial activity (MIC/MBC) against E. fecalis; type: cell-based; conditions: Enterococcus; for MIC: 24 h
Experimental: (§1) The invention specifically relates to the process for the preparation of antimicrobial derivatives of saturated anacardic acid (C15:0). The mixture of anacardic acids chromatographically purified from CNSL was hydrogenated using Pd—C to get the saturated anacardic acid (C15:0). Said derivatives were prepared by adopting the techniques used in synthetic chemistry for nitration, halogenation and acetylation of various organic compounds. The synthesized derivatives were assayed for anti bacterial activity against Stapphalococcus aureus and Methicillin resistant Stapphalococcus aureus and Enterococcus fecalis by the broth assay used for antibiotic susceptibility tests and the minimum inhibitory concentration (MIC) and minimum bactericidal concentration (MBC) determined.
(§2) Procedure for Antimicrobial Testing:
(§3) The bacterial colonies from Luria-Bertani (LB) agar plates were inoculated into sterile LB broth and incubated in an incubator shaker for 12 h. This culture was diluted such that the innoculum when added to the test broth would correspond to 10^5 colony forming units (CFU). The broth assays were done in sterile culture tubes containing 5 mL of LB medium. The test compounds dissolved in ethanol and controls were added to these tubes and then the innoculum was added and the tubes incubated at 37° C. for 24 h. After 24 h incubation the OD600 was recorded and then plated on LB agar plates and incubated fore 24 h at 37° C. The colonies were counted and the minimum inhibitory concentration (MIC) and minimum bactericidal concentration (MBC) calculated. The MIC is determined by the minimum concentration of the sample at which no growth was observed as determined by measuring the OD600. The MBC is determined by the concentration at which there is a reduction in the cfu in the broth assay from 10^5 to 10^3 counted after plating on LB agar plates.

Sa (NCTC8325) = experiment: Broth assay, antibacterial activity (MIC/MBC) against Sa (NCTC8325); type: cell-based, Stapphalococcus aureus; conditions: for MIC: 24 h
Experimental: as §1, §2, §3

MRSA [2] = experiment: Broth assay, antibacterial activity (MIC/MBC) against MRSA; type: cell-based, Methicillin resistant Stapphalococcus aureus; conditions: Staphylococcus aureus; for MIC: 24 h
Experimental: as §1, §2, §3

[3] = E. fecalis, LB broth, 37° C., no growth by OD600, read-out: MIC
[4] = E. fecalis, reduction in cfu from 10^5 to 10^3 after plating on LB agar, read-out: MBC
[5] = Sa (NCTC8325), LB broth, 37° C., no growth by OD600, read-out: MIC
[6] = Sa (NCTC8325), reduction in cfu from 10^5 to 10^3 after plating on LB agar, read-out: MBC
[7] = LB broth, 37° C., no growth by OD600, read-out: MIC
[8] = reduction in cfu from 10^5 to 10^3 after plating on LB agar, read-out: MBC

| Structure (SMILES) | minimum inhibitory concentration (MIC) (MRSA [1]) | MIC (E. fecalis; [3]) | MBC (E. fecalis; [4]) | MIC (Sa (NCTC8325); [5]) | MBC (Sa (NCTC8325); [6]) | MIC (MRSA [2]; [7]) | MBC (MRSA [2]; [8]) | MBC (E. fecalis) | MIC (E. fecalis) | MBC (Sa (NCTC8325)) | MIC (Sa (NCTC8325)) | MBC (MRSA [2]) | MIC (MRSA [2]) |
| --- | --- | --- | --- | --- | --- | --- | --- | --- | --- | --- | --- | --- | --- |
| CCCCCCCCCCCCCCCc1cccc(O)c1C(=O)O [AA, 6-pentadecyl salicylic acid, reference compound] | 1600 µg/mL (≈ 4590 µM) | 0.5 µg/mL (≈ 1.43 µM) | 6 µg/mL (≈ 17.2 µM) | > 10 µg/mL | > 10 µg/mL | > 50 µg/mL | > 50 µg/mL |  |  |  |  |  |  |
| CCCCCCCCCCCCCCCc1cccc(OC(C)=O)c1C(=O)O [AAA, 6-Pentadecyl-2-acetyloxybenzoic acid] |  | 1 µg/mL (≈ 2.56 µM) | 6 µg/mL (≈ 15.4 µM) | 6 µg/mL (≈ 15.4 µM) | 7 to 8 µg/mL (≈ 17.9 to 20.5 µM) | 2 µg/mL (≈ 5.12 µM) | 6 µg/mL (≈ 15.4 µM) |  |  |  |  |  |  |
| CCCCCCCCCCCCCCCc1c([N+](=O)[O-])cc([N+](=O)[O-])c(OC(C)=O)c1C(=O)O [ADAA, 3,5-Dinitro-6-pentadecyl-2-acetyloxybenzoic acid] |  | 6 µg/mL (≈ 12.5 µM) | 6 µg/mL (≈ 12.5 µM) | 2 µg/mL (≈ 4.16 µM) | 6 µg/mL (≈ 12.5 µM) | 4 µg/mL (≈ 8.32 µM) | 10 µg/mL (≈ 20.8 µM) |  |  |  |  |  |  |
| CCCCCCCCCCCCCCCc1c(Br)ccc(OC(C)=O)c1C(=O)O [ADBAA, 5-Bromo-6-pentadecyl-2-acetyloxybenzoic acid] |  | 1 µg/mL (≈ 2.13 µM) | 3 µg/mL (≈ 6.39 µM) | > 10 µg/mL | > 10 µg/mL | 9 to 10 µg/mL (≈ 19.2 to 21.3 µM) | > 10 µg/mL |  |  |  |  |  |  |
| CCCCCCCCCCCCCCCc1cc([N+](=O)[O-])c([N+](=O)[O-])c(OC(C)=O)c1C(=O)O [ANAA, 3,4-Dinitro-6-pentadecyl-2-acetyloxybenzoic acid] |  | 0.5 µg/mL (≈ 1.04 µM) | 7 µg/mL (≈ 14.6 µM) | 1 µg/mL (≈ 2.08 µM) | > 10 µg/mL | 2 µg/mL (≈ 4.16 µM) | > 10 µg/mL |  |  |  |  |  |  |
| CCCCCCCCCCCCCCCc1c([N+](=O)[O-])cc([N+](=O)[O-])c(O)c1C(=O)O [DAA, 3,5-Dinitro-6-pentadecyl-2-hydroxybenzoic acid] |  |  |  |  |  |  |  | 6 µg/mL (≈ 13.7 µM) | 6 µg/mL (≈ 13.7 µM) | 3 to 5 µg/mL (≈ 6.84 to 11.4 µM) | 2 µg/mL (≈ 4.56 µM) | 6 µg/mL (≈ 13.7 µM) | 3 µg/mL (≈ 6.84 µM) |
| CCCCCCCCCCCCCCCc1c(Br)ccc(O)c1C(=O)O [DBAA, 5-Bromo-6-pentadecyl-2-hydroxybenzoic acid] |  | 6 µg/mL (≈ 14 µM) | 6 µg/mL (≈ 14 µM) | > 10 µg/mL | > 10 µg/mL | > 20 µg/mL | > 20 µg/mL |  |  |  |  |  |  |
| CCCCCCCCCCCCCCCc1cccc(OC)c1C(=O)O [MAA, 2-Methoxy-6-Pentadecyl-benzoic acid] |  | 1 µg/mL (≈ 2.76 µM) | 6 µg/mL (≈ 16.5 µM) | 1 µg/mL (≈ 2.76 µM) | 8 µg/mL (≈ 22.1 µM) | 1 µg/mL (≈ 2.76 µM) | 4 µg/mL (≈ 11 µM) |  |  |  |  |  |  |
| CCCCCCCCCCCCCCCc1cccc(OC)c1C(=O)NC1C(=O)N2C1SC(C)(C)C2C(=O)O (centres unmarked) [MAA-APA] |  | 6 µg/mL (≈ 10.7 µM) | > 10 µg/mL | > 10 µg/mL | > 10 µg/mL | 10 to 20 µg/mL (≈ 17.8 to 35.7 µM) | > 20 µg/mL |  |  |  |  |  |  |
| C=C[C@@](C)(/C=C/c1ccc(OC(=O)c2c(CCCCCCCCCCCCCCC)cccc2OC)cc1)CCC=C(C)C [MAA-Ba] |  | 6 µg/mL (≈ 9.98 µM) | > 10 µg/mL | > 10 µg/mL | > 10 µg/mL | > 20 µg/mL | > 20 µg/mL |  |  |  |  |  |  |
| CCCCCCCCCCCCCCCc1cccc(OC)c1C(=O)NC(Cc1ccccc1)C(=O)O (centres unmarked) [MAA-F] |  | 6 µg/mL (≈ 11.8 µM) | > 10 µg/mL | > 10 µg/mL | > 10 µg/mL | > 20 µg/mL | > 20 µg/mL |  |  |  |  |  |  |
| CCCCCCCCCCCCCCCc1cccc(OC)c1C(=O)Nc1ccc(C(=O)O)cc1 [MAA-PABA] |  | 6 µg/mL (≈ 12.5 µM) | > 10 µg/mL | > 10 µg/mL | > 10 µg/mL | > 20 µg/mL | > 20 µg/mL |  |  |  |  |  |  |
| CCCCCCCCCCCCCCCc1cccc(OC)c1C(=O)Nc1ccc([N+](=O)[O-])cc1 [MAA-PNA] |  | > 10 µg/mL | > 10 µg/mL | > 10 µg/mL | > 10 µg/mL | > 20 µg/mL | > 20 µg/mL |  |  |  |  |  |  |
| CCCCCCCCCCCCCCCc1cccc(OC)c1C(=O)NC(Cc1ccc(O)cc1)C(=O)O (centres unmarked) [MAAY] |  | 6 µg/mL (≈ 11.4 µM) | > 10 µg/mL | 3 to 5 µg/mL (≈ 5.71 to 9.51 µM) | > 10 µg/mL | 2 µg/mL (≈ 3.8 µM) | 10 µg/mL (≈ 19 µM) |  |  |  |  |  |  |
| CCCCCCCCCCCCCCCc1c([N+](=O)[O-])cc([N+](=O)[O-])c(OC)c1C(=O)O [MDAA, 3,5-Dinitro-6-pentadecyl-2-Methoxybenzoic acid] |  | 0.5 µg/mL (≈ 1.1 µM) | 2 µg/mL (≈ 4.42 µM) | 6 µg/mL (≈ 13.3 µM) | 8 µg/mL (≈ 17.7 µM) | 2 µg/mL (≈ 4.42 µM) | 4 µg/mL (≈ 8.84 µM) |  |  |  |  |  |  |
| CCCCCCCCCCCCCCCc1c(Br)ccc(OC)c1C(=O)O [MDBAA, 5Bromo-6-pentadecyl-2-methoxybenzoic acid] |  | 1 µg/mL (≈ 2.27 µM) | 3 µg/mL (≈ 6.8 µM) | 3 to 5 µg/mL (≈ 6.8 to 11.3 µM) | 5 µg/mL (≈ 11.3 µM) | 0.5 µg/mL (≈ 1.13 µM) | 4 µg/mL (≈ 9.06 µM) |  |  |  |  |  |  |
| CCCCCCCCCCCCCCCc1cc([N+](=O)[O-])c([N+](=O)[O-])c(O)c1C(=O)O [NAA, 3,4-Dinitro-6-pentadecyl-2-hydroxybenzoic acid] |  |  |  |  |  |  |  | 7 µg/mL (≈ 16 µM) | 0.5 µg/mL (≈ 1.14 µM) | 7 to 8 µg/mL (≈ 16 to 18.2 µM) | 1 µg/mL (≈ 2.28 µM) | 10 µg/mL (≈ 22.8 µM) | 1 µg/mL (≈ 2.28 µM) |
| C=CCC=CCC=CCCCCCCCc1cccc(O)c1C(=O)O [triene (C15:3)] | 6.5 µg/mL (≈ 19 µM) |  |  |  |  |  |  |  |  |  |  |  |  |

Source: US8338638B2, “Antimicrobial derivatives of anacardic acid and process for preparing the same” (Unichem Laboratories Ltd., priority 2006, dated 2012)
